# Measured values as given in patent publication US8952034B2, “Fused heterocyclic compounds as ion channel modulators” (Gilead Sciences, Inc., priority 2009, dated 2015).
# Target: wild-type human cardiac sodium channel, hNav1.5 (Homo sapiens, UniProt Q14524)
# Test: Late INa screening assay (automated whole cell patch clamp, PatchXpress)
# Format: cell-based
# Conditions: compound at 1 μM; HEK293 cells expressing hNav1.5; late INa generated with 10 μM Tefluthrin (or 50 nM ATX II); read-out: LateINa_1 uM (percent block of late INa)
# Experimental: The late sodium current (Late INa) and peak sodium current (Peak INa) assays are performed on an automated electrophysiology platform, PatchXpress 7000A (MDS Analytical Technologies, Sunnyvale, Calif.), which uses the whole cell patch clamp technique to measure currents through the cell membrane of up to 16 cells at a time. The assay uses an HEK293 (human embryonic kidney) cell line heterologously expressing the wild-type human cardiac sodium channel, hNav1.5, purchased from Millipore (Billerica, Mass.). No beta subunits were coexpressed with the Na channel alpha subunit. Cells are maintained with standard tissue culture procedures and stable channel expression is maintained with 400 μg/ml Geneticin in the culture medium. […] Experiments are carried out at 24-27° C.
# For both the Late INa and Peak INa assays, series resistance compensation is set to 50% and whole-cell compensation is performed automatically. […] Currents through open sodium channels are automatically recorded and stored in the DataXpress2 database (MDS Analytical Technologies, Sunnyvale, Calif.). Analysis is performed using DataXpress2 analysis software and data are compiled in Excel.
# Compound stocks are routinely made in glass vials to 10 mM in dimethyl sulfoxide (DMSO). In some cases, when compounds are not soluble in DMSO, they are made in 100% ethanol. Stocks are sonicated as necessary. The extracellular solution for screening Late INa is composed of: 140 mM NaCl, 4 mM KCl, 1.8 mM CaCl2, 0.75 mM MgCl2, and 5 mM HEPES with pH adjusted to 7.4 using NaOH. The extracellular solution for screening Peak INa is composed of: 20 mM NaCl, 120 mM N-methyl-D glucamine, 4 mM KCl, 1.8 mM CaCl2, 0.75 mM MgCl2, and 5 mM HEPES with pH adjusted to 7.4 using HCl. The intracellular solution used to perfuse the inside of the cells for both the Late INa and Peak INa assays contains: 120 mM CsF, 20 mM CsCl, 5 mM EGTA, 5 mM HEPES and pH adjusted to 7.4 with CsOH. […] The 0Na extracellular solution used at the end of each experiment for the Late INa and Peak INa assays to measure baseline current contains: 140 mM N-methyl-D-glucamine; 4 mM KCl; 1.8 mM CaCl2; 0.75 mM MgCl2; 5 mM HEPES and pH was adjusted to 7.4 with HCl.
# For the Late INa assay, sodium channels are activated every 10 seconds (0.1 Hz) by depolarizing the cell membrane to −20 mV for 250 milliseconds (ms) from a holding potential of −120 mV. In response to a −20 mV voltage step, typical Nav1.5 sodium currents activate rapidly to a peak negative current and then inactivate nearly completely within […].
# All compounds are tested to determine their activity in blocking the late sodium current. Late INa current is generated by adding 10 μM Tefluthrin (pyrethroid) to the extracellular solution while recording Na currents For some experiments, 50 nM ATX II (sea anemone toxin), another late INa activator, was used to generate the late component. […] After establishing the whole cell recording configuration, late INa activators are added to each well 4 times over a 16-17 minute period so that the late component of the Na current reaches a stable value. […] Measurements are made at the end of exposure to the third compound addition and values are normalized to the current level when all Na^+ is removed from the extracellular solution after two additions of 0Na-ECF. Results are reported as percent block of late INa
# wild-type human cardiac sodium channel, hNav1.5, sequence (Q14524 whole entry): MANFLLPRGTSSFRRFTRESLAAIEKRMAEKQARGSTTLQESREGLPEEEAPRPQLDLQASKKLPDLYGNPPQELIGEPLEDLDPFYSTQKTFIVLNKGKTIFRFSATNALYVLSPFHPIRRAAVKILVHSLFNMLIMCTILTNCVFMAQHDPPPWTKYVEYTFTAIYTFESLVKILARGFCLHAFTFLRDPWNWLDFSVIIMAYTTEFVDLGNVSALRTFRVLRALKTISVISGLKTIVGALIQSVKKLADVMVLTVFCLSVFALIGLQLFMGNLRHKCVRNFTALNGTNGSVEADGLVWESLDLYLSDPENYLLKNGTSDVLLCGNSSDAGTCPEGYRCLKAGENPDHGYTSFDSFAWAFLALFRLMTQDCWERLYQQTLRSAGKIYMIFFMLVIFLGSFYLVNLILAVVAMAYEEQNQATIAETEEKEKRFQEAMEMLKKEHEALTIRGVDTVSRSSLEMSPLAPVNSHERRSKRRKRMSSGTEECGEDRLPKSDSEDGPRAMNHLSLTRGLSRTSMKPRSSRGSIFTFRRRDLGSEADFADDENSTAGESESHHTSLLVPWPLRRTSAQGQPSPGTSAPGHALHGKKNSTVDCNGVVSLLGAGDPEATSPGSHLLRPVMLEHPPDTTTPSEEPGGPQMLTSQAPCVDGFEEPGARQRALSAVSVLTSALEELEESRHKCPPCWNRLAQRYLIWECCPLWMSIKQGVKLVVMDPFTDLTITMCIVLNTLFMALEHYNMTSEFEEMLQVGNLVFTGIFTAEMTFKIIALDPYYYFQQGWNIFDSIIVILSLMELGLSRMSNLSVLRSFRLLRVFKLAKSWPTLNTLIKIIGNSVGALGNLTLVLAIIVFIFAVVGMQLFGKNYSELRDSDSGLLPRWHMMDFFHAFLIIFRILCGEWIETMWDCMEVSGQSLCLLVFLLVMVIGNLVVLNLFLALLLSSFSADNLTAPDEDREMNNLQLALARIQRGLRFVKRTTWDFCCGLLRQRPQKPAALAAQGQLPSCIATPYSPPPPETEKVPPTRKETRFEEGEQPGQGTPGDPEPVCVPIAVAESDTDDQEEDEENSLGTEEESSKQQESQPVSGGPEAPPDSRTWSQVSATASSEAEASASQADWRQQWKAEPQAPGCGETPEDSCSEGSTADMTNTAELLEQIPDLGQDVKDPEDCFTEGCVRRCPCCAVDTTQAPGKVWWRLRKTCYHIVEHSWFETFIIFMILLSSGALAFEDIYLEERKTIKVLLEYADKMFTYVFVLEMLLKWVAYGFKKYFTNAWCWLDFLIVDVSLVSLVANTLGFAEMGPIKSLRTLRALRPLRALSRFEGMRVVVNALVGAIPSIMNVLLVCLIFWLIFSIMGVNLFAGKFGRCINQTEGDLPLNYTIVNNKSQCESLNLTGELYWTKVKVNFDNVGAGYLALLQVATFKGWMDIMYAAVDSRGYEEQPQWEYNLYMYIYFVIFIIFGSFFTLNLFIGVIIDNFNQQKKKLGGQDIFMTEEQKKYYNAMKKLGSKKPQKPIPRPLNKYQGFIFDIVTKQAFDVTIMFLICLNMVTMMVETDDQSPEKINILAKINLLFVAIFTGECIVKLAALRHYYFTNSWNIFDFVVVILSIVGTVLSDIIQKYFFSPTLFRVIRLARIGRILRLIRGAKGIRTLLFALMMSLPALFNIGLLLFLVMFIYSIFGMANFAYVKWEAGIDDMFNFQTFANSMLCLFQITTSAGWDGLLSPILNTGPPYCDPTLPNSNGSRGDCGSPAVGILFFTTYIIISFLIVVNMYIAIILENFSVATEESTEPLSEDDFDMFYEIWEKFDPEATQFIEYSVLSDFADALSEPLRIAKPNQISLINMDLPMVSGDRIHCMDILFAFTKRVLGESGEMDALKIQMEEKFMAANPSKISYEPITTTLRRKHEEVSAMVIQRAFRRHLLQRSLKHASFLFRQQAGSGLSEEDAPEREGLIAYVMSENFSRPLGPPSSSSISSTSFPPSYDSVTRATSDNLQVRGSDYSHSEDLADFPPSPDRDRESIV
row,SMILES,inhibition at 1 µM [%]
1,"FC(F)(F)Oc1ccc(-c2ccc3nnc(-c4ccc(OC(F)(F)F)cc4)n3n2)cc1 [BHN-118, 3,6-bis[4-(trifluoromethoxy)phenyl][1,2,4]triazolo[4,3-b]pyridazine]",46.3
2,"FC(F)c1nnc2ccc(-c3ccc(OCC(F)(F)F)nc3)nn12 [BHN-237, 3-(difluoromethyl)-6-[6-(2,2,2-trifluoroethoxy)pyridin-3-yl][1,2,4]triazolo[4,3-b]pyridazine]",44.7
3,"Cc1c(-c2ccc(OC(F)(F)F)cc2)ccc2nnc(C(F)(F)F)n12 [BHN-202, 5-methyl-6-[4-(trifluoromethoxy)phenyl]-3-(trifluoromethyl)[1,2,4]triazolo[4,3-a]pyridine]",74.2
4,"FC(F)(F)Oc1ccc(-c2ccc3nnc(C(F)(F)OCc4cc(-c5ccc(C6CC6)nc5)ccn4)n3c2)cc1 [BHN-316, 6-cyclopropyl-2′-[(difluoro{6-[4-(trifluoromethoxy)phenyl][1,2,4]triazolo[4,3-a]pyridin-3-yl}methoxy)methyl]-3,4′-bipyridine]",59
5,"FC(F)(F)COc1nnc2ccc(-c3ccc(OC(F)(F)F)cc3)cn12 [BHN-186, 3-(2,2,2-trifluoroethoxy)-6-[4-(trifluoromethoxy)phenyl][1,2,4]triazolo[4,3-a]pyridine]",45.2
6,"Cc1nc(COC(F)(F)c2nnc3ccc(-c4ccc(OC(F)(F)F)cc4)cn23)c(C)o1 [BHN-228, 3-{[(2,5-dimethyl-1,3-oxazol-4-yl)methoxy](difluoro)methyl}-6-[4-(trifluoromethoxy)phenyl][1,2,4]triazolo[4,3-a]pyridine]",73
7,"FC(F)(F)COc1ccc(-c2ccc3nnc(C(F)(F)F)n3c2)nn1 [BHN-187, 6-[6-(2,2,2-trifluoroethoxy)pyridazin-3-yl]-3-(trifluoromethyl)[1,2,4]triazolo[4,3-a]pyridine]",15.2
8,"CC(C)Cc1nc(COC(F)(F)c2nnc3ccc(-c4ccc(OC(F)(F)F)cc4)cn23)no1 [BHN-207, 3-(difluoro{[5-(2-methylpropyl)-1,2,4-oxadiazol-3-yl]methoxy}methyl)-6-[4-(trifluoromethoxy)phenyl][1,2,4]triazolo[4,3-a]pyridine]",60.3
9,"Fc1ccc(Nc2ccc(-c3ccc4nnc(C(F)(F)F)n4c3)cc2)cc1 [BHN-284, 4-fluoro-N-{4-[3-(trifluoromethyl)[1,2,4]triazolo[4,3-a]pyridin-6-yl]phenyl}aniline]",31.4
10,"CC1(c2ccc(-c3ccc4nnc(C(F)(F)F)n4c3)cc2)OCCO1 [BHN-162, 6-[4-(2-methyl-1,3-dioxolan-2-yl)phenyl]-3-(trifluoromethyl)[1,2,4]triazolo[4,3-a]pyridine]",29.9
11,"FC(F)(F)c1ncc2ccc(-c3ccccc3)cn12 [BHN-194, 6-phenyl-3-(trifluoromethyl)imidazo[1,5-a]pyridine]",22.2
12,"CCC(O)(CC)C(F)(F)c1nnc2ccc(-c3ccc(OC(F)(F)F)cc3)cn12 [BHN-197, 3-(difluoro{6-[4-(trifluoromethoxy)phenyl][1,2,4]triazolo[4,3-a]pyridin-3-yl}methyl)pentan-3-ol]",25.4
13,"FC(F)c1nnc2ccc(-c3ccc(Oc4ccccc4)cc3)nn12 [BHN-13, 3-(difluoromethyl)-6-(4-phenoxyphenyl)[1,2,4]triazolo[4,3-b]pyridazine]",44.8
14,"FC(F)(F)Oc1ccc(COCc2nnc3ccc(-c4ccc(OC(F)(F)F)cc4)cn23)cc1 [BHN-242, 3-({[4-(trifluoromethoxy)benzyl]oxy}methyl)-6-[4-(trifluoromethoxy)phenyl][1,2,4]triazolo[4,3-a]pyridine]",72.2
15,"COCC(F)(F)c1nnc2ccc(C#Cc3ccc(OC(F)(F)F)cc3)cn12 [BHN-309, 3-(1,1-difluoro-2-methoxyethyl)-6-{[4-(trifluoromethoxy)phenyl]ethynyl}[1,2,4]triazolo[4,3-a]pyridine]",25.2
16,"FC(F)(F)Oc1ccc(-c2ccc3nnc(C(F)(F)OCc4cn(Cc5ccccc5)nn4)n3c2)cc1 [BHN-297, 3-{[(1-benzyl-1H-1,2,3-triazol-4-yl)methoxy](difluoro)methyl}-6-[4-(trifluoromethoxy)phenyl][1,2,4]triazolo[4,3-a]pyridine]",63.4
17,"Cc1cc(-c2ccc(OC(F)(F)F)cc2)cn2c(C(F)(F)F)nnc12 [BHN-103, 8-methyl-6-[4-(trifluoromethoxy)phenyl]-3-(trifluoromethyl)[1,2,4]triazolo[4,3-a]pyridine]",40.7
18,"CC(OC(F)(F)c1nnc2ccc(-c3ccc(OC(F)(F)F)cc3)cn12)c1ccc(F)cc1 (centres unmarked) [BHN-217, 3-{difluoro[1-(4-fluorophenyl)ethoxy]methyl}-6-[4-(trifluoromethoxy)phenyl][1,2,4]triazolo[4,3-a]pyridine]",16.8
19,"FC(F)(F)Oc1ccc(-c2ccc3nnc(C(F)(F)OCc4ccc(-n5cccn5)nc4)n3c2)cc1 [BHN-315, 3-(difluoro{[6-(1H-pyrazol-1-yl)pyridin-3-yl]methoxy}methyl)-6-[4-(trifluoromethoxy)phenyl][1,2,4]triazolo[4,3-a]pyridine]",55.9
20,"CCc1nnc2ccc(-c3ccc(Oc4ccccc4)cc3)nn12 [BHN-38, 3-ethyl-6-(4-phenoxyphenyl)[1,2,4]triazolo[4,3-b]pyridazine]",54.5
21,"CC(C)(O)C(F)(F)c1nnc2ccc(-c3ccc(OC(F)(F)F)cc3)cn12 [BHN-176, 1,1-difluoro-2-methyl-1-{6-[4-(trifluoromethoxy)phenyl][1,2,4]triazolo[4,3-a]pyridin-3-yl}propan-2-ol]",15.2
22,"O=C(NCC(F)(F)c1nnc2ccc(-c3ccc(OC(F)(F)F)cc3)cn12)c1ccccn1 [BHN-184, N-(2,2-difluoro-2-{6-[4-(trifluoromethoxy)phenyl][1,2,4]triazolo[4,3-a]pyridin-3-yl}ethyl)pyridine-2-carboxamide]",29.8
23,"OC(C1CC1)C(F)(F)c1nnc2ccc(-c3ccc(OC(F)(F)F)cc3)cn12 (centres unmarked) [BHN-166, 1-cyclopropyl-2,2-difluoro-2-{6-[4-(trifluoromethoxy)phenyl][1,2,4]triazolo[4,3-a]pyridin-3-yl}ethanol]",29.5
24,"FC(F)(F)Oc1ccc(-c2ccc3nnc(C(F)(F)F)n3c2)c2cccnc12 [BHN-108, 8-(trifluoromethoxy)-5-[3-(trifluoromethyl)[1,2,4]triazolo[4,3-a]pyridin-6-yl]quinoline]",45.7
25,"FC(F)(F)COCc1nnc2ccc(-c3ccc(OC(F)(F)F)cc3)cn12 [BHN-129, 3-[(2,2,2-trifluoroethoxy)methyl]-6-[4-(trifluoromethoxy)phenyl][1,2,4]triazolo[4,3-a]pyridine]",48.4

# Same assay, conditions: compound at 10 μM; HEK293 cells expressing hNav1.5; late INa generated with 10 μM Tefluthrin (or 50 nM ATX II); read-out: LateINa_10 uM (percent block of late INa)
row,SMILES,inhibition at 10 µM [%]
1,"c1ccc(Oc2cccc(-c3ccc4ncnn4c3)c2)cc1 [BHN-347, 6-(3-phenoxyphenyl)[1,2,4]triazolo[1,5-a]pyridine]",73.6
2,"FC(F)(F)c1nnc2ccc(-c3ccc(-n4cncn4)cc3)cn12 [BHN-61, 6-[4-(1H-1,2,4-triazol-1-yl)phenyl]-3-(trifluoromethyl)[1,2,4]triazolo[4,3-a]pyridine]",23.5
3,"FC(F)c1nnc2ccc(-c3ccc(Oc4ccccc4)cc3)nn12 [BHN-13, 3-(difluoromethyl)-6-(4-phenoxyphenyl)[1,2,4]triazolo[4,3-b]pyridazine]",87.1
4,"NS(=O)(=O)c1ccc(-c2nnc3ccc(-c4ccc(OC(F)(F)F)cc4)cn23)cc1 [BHN-73, 4-{6-[4-(trifluoromethoxy)phenyl][1,2,4]triazolo[4,3-a]pyridin-3-yl}benzenesulfonamide]",17.5
5,"CC(C)S(=O)(=O)c1ccc(-c2ccc3nnc(C(F)(F)F)n3c2)cc1 [BHN-68, 6-[4-(propan-2-ylsulfonyl)phenyl]-3-(trifluoromethyl)[1,2,4]triazolo[4,3-a]pyridine]",22
6,"CCc1nnc2ccc(-c3ccc(Oc4ccccc4)cc3)nn12 [BHN-38, 3-ethyl-6-(4-phenoxyphenyl)[1,2,4]triazolo[4,3-b]pyridazine]",79.3
7,"FC(F)(F)Oc1ccc(-c2ccc3nnc(C(F)(F)F)n3c2)c2cccnc12 [BHN-108, 8-(trifluoromethoxy)-5-[3-(trifluoromethyl)[1,2,4]triazolo[4,3-a]pyridin-6-yl]quinoline]",63.1
